Results on one compound are retold here after article PMC7749613 (Journal of Cachexia, Sarcopenia and Muscle, 2020).

Bridge positions count the residues as written; N and C are the ends. Square brackets hold non-standard residues; d marks the D form. Peptide text beside a SMILES is read from it. d2Nal = N[C@H](Cc1ccc2ccccc2c1)C(=O)O; Nle = CCCC[C@H](N)C(=O)O

One series has as its target T1, OAT3 (Homo sapiens, UniProt Q8TCC7).
T1 construct: host or cells: HEK293
T1 sequence (Q8TCC7 1-542): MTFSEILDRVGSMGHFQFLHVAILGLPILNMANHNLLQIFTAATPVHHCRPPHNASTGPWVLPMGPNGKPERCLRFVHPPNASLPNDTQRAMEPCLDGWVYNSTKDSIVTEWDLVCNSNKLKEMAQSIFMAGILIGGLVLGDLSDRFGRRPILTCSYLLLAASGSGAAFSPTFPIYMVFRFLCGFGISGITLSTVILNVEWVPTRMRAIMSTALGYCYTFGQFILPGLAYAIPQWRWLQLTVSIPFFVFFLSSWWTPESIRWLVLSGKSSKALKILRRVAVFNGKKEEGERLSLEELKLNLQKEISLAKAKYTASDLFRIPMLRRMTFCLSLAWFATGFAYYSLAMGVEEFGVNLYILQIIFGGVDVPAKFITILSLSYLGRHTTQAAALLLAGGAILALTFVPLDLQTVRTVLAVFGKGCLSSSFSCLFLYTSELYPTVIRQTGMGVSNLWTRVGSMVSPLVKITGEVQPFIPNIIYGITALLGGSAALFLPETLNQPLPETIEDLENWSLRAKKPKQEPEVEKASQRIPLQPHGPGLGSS
Kind of series: Inhibition of prototypical substrate (E3S) uptake by TCMCB07 in HEK293/OAT3 cells. It counts as in vitro ADME. The following applies: substrate 1.0 μM [3H]E3S, 5.0 min, up to 1000 μM TCMCB07.

The next series deals with T2, BCRP (ABCG2) (Homo sapiens, UniProt Q9UNQ0).
T2 construct: host or cells: MDCKII
T2 sequence (Q9UNQ0 1-655): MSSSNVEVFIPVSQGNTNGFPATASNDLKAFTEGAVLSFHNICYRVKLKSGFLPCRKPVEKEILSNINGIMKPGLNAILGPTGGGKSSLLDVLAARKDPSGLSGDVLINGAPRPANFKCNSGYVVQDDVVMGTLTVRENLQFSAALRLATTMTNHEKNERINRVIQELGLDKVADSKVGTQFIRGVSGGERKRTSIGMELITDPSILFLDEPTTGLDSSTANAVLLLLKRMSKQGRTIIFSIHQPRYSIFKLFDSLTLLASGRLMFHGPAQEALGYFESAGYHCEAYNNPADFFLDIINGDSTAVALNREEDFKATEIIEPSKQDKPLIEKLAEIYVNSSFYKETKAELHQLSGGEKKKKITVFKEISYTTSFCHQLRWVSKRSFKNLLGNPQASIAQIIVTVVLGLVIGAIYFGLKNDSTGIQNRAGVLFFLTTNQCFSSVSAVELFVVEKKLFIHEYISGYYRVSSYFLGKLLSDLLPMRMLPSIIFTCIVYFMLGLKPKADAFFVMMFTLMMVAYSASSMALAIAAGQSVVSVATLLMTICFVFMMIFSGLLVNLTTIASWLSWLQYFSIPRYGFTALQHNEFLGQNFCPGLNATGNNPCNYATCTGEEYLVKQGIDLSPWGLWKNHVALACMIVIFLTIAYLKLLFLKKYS
As to the kind of experiment: Transepithelial transport of rosuvastatin (±TCMCB07) in MDCKII/BCRP cells. Format: in vitro ADME. As for the experimental part: Cells were then washed three times, each with 0.5 mL pre‐warmed HBSS buffer. […] The cells were then incubated for various times up to 60 min. […] At the designated times, 15 μL of apical buffer and 50 μL of basolateral buffer were sampled. Once all the samples were collected, 0.5 mL of ice‐cold HBSS buffer was added to the well to stop transport after which the cells were rinsed three times with 0.5 mL of ice‐cold HBSS. The filters with monolayers were then detached from the chamber and placed in a scintillation vial, and the cells were lysed with 0.33 mL hyamine hydroxide.
The permeability of digoxin and rosuvastatin (prototypical substrates for MDR1 and BCRP, respectively) was determined by the following ^18 : (4) Papp=CR·VR/CD^o·A·∆Δt, where Papp is the apparent permeability, CR is the concentration of substrate in the receiver chamber, CD^o is the concentration of substrate in the donor chamber at time zero, VR is the volume of buffer in the receiver chamber, A is the surface area of the insert filter membrane, and ∆t is the time over which permeability is measured.
A similar analysis can be performed for rosuvastatin by substituting ERRos for ERDig and ERRos+T for ERDig+T in Eqn 6.

In the next series the target is T3, OATP2B1 (Homo sapiens, UniProt O94956).
T3 construct: host or cells: HEK293
T3 sequence (O94956 1-709): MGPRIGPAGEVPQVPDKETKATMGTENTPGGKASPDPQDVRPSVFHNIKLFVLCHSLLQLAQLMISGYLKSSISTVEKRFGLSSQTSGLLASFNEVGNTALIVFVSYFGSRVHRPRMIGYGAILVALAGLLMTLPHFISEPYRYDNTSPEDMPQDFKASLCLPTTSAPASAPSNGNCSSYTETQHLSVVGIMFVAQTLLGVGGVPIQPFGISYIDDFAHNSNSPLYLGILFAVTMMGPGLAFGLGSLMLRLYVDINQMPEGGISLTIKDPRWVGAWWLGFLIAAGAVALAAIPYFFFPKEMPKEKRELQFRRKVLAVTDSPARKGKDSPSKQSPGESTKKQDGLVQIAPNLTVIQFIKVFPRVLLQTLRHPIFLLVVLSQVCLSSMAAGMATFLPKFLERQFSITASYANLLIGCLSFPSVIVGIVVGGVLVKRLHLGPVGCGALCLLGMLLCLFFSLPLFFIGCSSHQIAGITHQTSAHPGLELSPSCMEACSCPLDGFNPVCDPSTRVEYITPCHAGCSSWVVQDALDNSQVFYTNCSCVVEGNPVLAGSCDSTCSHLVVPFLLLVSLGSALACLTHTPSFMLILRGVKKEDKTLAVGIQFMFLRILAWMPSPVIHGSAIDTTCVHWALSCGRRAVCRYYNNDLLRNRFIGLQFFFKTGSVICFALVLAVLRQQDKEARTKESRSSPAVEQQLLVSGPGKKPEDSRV
Kind of series: Inhibition of prototypical substrate (E3S) uptake by TCMCB07 in HEK293/OATP2B1 cells. Format: in vitro ADME.

Series [1] in a line: In vivo mass balance study (urinary and faecal recovery) in mice. Conditions: mouse, in vivo; for dose excreted at 24 h: total radioactivity. As for the experimental part:
Each mouse was then placed in a metabolic cage for 24 h, along with food and water, and the urine and faeces were collected. The metabolic cage was washed several times, after which 100 μL aliquots of diluted urine and faeces was placed in separate vials. Radioactivity measurements were then performed as described previously. All animal procedures were approved by the Institutional Animal Care and Use Committee at the University of Michigan, Ann Arbor.

[2] abbreviates: in the presence of 500 μM TCMCB07, increased by.

Method for OAT3: (§1) Cells were then washed three times × 1.0 mL each with pre‐warmed Hank's Balanced Salt Solution (HBSS) buffer. A 0.5 mL aliquot of uptake buffer [HBSS plus 10 mM 4‐(2‐hydroxyethyl)‐1‐piperazineethanesulfonic acid (HEPES), pH 7.4], containing the radiolabelled prototypical substrate and mannitol, was then incubated for various times up to 60 min to determine the optimal incubation time for subsequent experiments (i.e. time of sampling during linear uptake conditions). At the designated times, 1.0 mL of ice‐cold HBSS buffer was added to stop uptake after which the cells were rinsed three times with 1.0 mL with ice‐cold HBSS. Hyamine hydroxide (0.33 mL) was then added to each well to lyse the cells. The cells were transferred into a scintillation vial and mixed with 6.0 mL of cytosine scintillation cocktail. Radioactivity of the solubilized cells was determined with a dual‐channel liquid scintillation counter (Beckman LS 6000; Beckman Coulter Inc., Fullerton, CA) and the protein quantified by a bicinchoninic acid protein assay kit (Pierce Biotechnology; Rockford, IL).
Method for OATP2B1: as §1

As usually defined, the IC50 is the midpoint of a concentration-inhibition curve. Higher therefore signals weaker potency. For the compound `CCCC[C@H](NC(C)=O)C(=O)N[C@H]1CC(=O)NCCCC[C@@H](C(=O)N[C@@H](C(=O)N2CCC[C@@H]2C(N)=O)C(C)C)NC(=O)[C@H](Cc2c[nH]c3ccccc23)NC(=O)[C@H](CCCN=C(N)N)NC(=O)[C@@H](Cc2ccc3ccccc3c2)NC(=O)[C@@H]2CCCN2C1=O` [TCMCB07, Ac‐Nle‐c[Asp‐Pro‐dNal2′‐Arg‐Trp‐Lys]‐dVal‐dPro‐NH2] (Ac-[Nle]DP[d2Nal]RWK[dV][dP]-NH2; lactam 2-7), the values for the IC50 entry on OAT3 and against OATP2B1 were “could not be determined” and 524 ± 83 µM, respectively. Also, at BCRP (ABCG2) (MDCKII/BCRP, 500 μM TCMCB07, negative = efflux ratio increased), the “% Change ER of rosuvastatin, 100·(1−ERRos+T/ERRos)” value is recorded as −32%. Also, the “increase of BCRP‐mediated permeability of rosuvastatin, A to B direction” value on BCRP (ABCG2) (setting [2]) is recorded as 5%. For the same compound, the “increase of BCRP‐mediated permeability of rosuvastatin, B to A direction” value at BCRP (ABCG2) (setting [2]) came out at 37%. On BCRP (ABCG2) (transfected cells, 500 μM TCMCB07), the “effect on BCRP‐mediated permeability of prototypical substrate” value is recorded as “did not affect”. The oral absorption in series [1] is 24.2%. Besides, the dose excreted at 24 h came to 14% in series [1] (iv, 23.3 mg/kg, % Urinary recovery, intravenous TCMCB07); 76% in series [1] (iv, faecal (biliary) share of total recovery (faeces/(urine + faeces))); 5% in series [1] (po, 23.3 mg/kg, % Urinary recovery, oral TCMCB07); 95% in series [1] (po, faecal share of total recovery (faeces/(urine + faeces))).
